Legend:
Type in all cases: cell-based
Escherichia coli EC14 = assay: MIC, standard broth micro-dilution assay, EC 14
Description: (§1) The antibacterial efficacy of the present compounds is illustrated by Table III. The minimal inhibitory concentrations (MICs) were determined using a standard broth micro-dilution assay.

[1] = system: Staphylococcus aureus 491; assay: MIC, standard broth micro-dilution assay, SA 491
Description: as §1

[2] = system: Staphylococcus aureus SA1199; assay: MIC, standard broth micro-dilution assay, SA 1199
Description: as §1

[3] = system: Sensitive Enterococcus faecium and faecalis; assay: MIC, standard broth micro-dilution assay, Sensitive; conditions: geometric mean of 4-6 isolates
Description: as §1

[4] = system: Staphylococcus epidermidis 270; assay: MIC, standard broth micro-dilution assay, SE 270
Description: as §1

[5] = system: Enterococcus faecalis 276; assay: MIC, standard broth micro-dilution assay, EF 276
Description: as §1

[6] = system: Staphylococcus aureus 447; assay: MIC, standard broth micro-dilution assay, SA 447
Description: as §1

[7] = system: Staphylococcus aureus SA1199A; assay: MIC, standard broth micro-dilution assay, SA 1199A
Description: as §1

[8] = system: Staphylococcus aureus 446; assay: MIC, standard broth micro-dilution assay, SA 446
Description: as §1

[9] = system: Enterococcus faecium 180-1; assay: MIC, standard broth micro-dilution assay, EF 180-1
Description: as §1

[10] = system: Resistant Enterococcus faecium and faecalis; assay: MIC, standard broth micro-dilution assay, Resistant; conditions: geometric mean of 4-6 isolates
Description: as §1

[11] = system: Enterococcus faecalis 2041; assay: MIC, standard broth micro-dilution assay, EF 2041
Description: as §1

[12] = system: Staphylococcus aureus X778; assay: MIC, standard broth micro-dilution assay, SA X778
Description: as §1

[13] = system: Enterococcus gallinarum 245; assay: MIC, standard broth micro-dilution assay, EG 245
Description: as §1

Enterococcus faecium 180 = assay: MIC, standard broth micro-dilution assay, EF 180
Description: as §1

[14] = system: Staphylococcus aureus X400; assay: MIC, standard broth micro-dilution assay, SA X400
Description: as §1

[15] = system: Staphylococcus haemolyticus 415; assay: MIC, standard broth micro-dilution assay, SH 415
Description: as §1

[16] = system: Staphylococcus haemolyticus 105; assay: MIC, standard broth micro-dilution assay, SH 105
Description: as §1

[17] = system: Staphylococcus aureus S13E
Description: as §1

[18] = system: Haemophilus influenzae RD; assay: MIC, standard broth micro-dilution assay, HFRD
Description: as §1

[19] = system: Staphylococcus aureus 489; assay: MIC, standard broth micro-dilution assay, SA 489
Description: as §1

| Structure (SMILES) | minimal inhibitory concentration (MIC), EC 14 (Escherichia coli EC14) | minimal inhibitory concentration (MIC), SA 491 [1] | minimal inhibitory concentration (MIC), SA 1199 [2] | minimal inhibitory concentration (MIC), Sensitive [3] | minimal inhibitory concentration (MIC), SE 270 [4] | minimal inhibitory concentration (MIC), EF 276 [5] | minimal inhibitory concentration (MIC), SA 447 [6] | minimal inhibitory concentration (MIC), SA 1199A [7] | minimal inhibitory concentration (MIC), SA 446 [8] | minimal inhibitory concentration (MIC), EF 180-1 [9] | minimal inhibitory concentration (MIC), Resistant [10] | minimal inhibitory concentration (MIC), EF 2041 [11] | minimal inhibitory concentration (MIC), SA X778 [12] | minimal inhibitory concentration (MIC), EG 245 [13] | minimal inhibitory concentration (MIC), EF 180 (Enterococcus faecium 180) | minimal inhibitory concentration (MIC), SA X400 [14] | minimal inhibitory concentration (MIC), SH 415 [15] | minimal inhibitory concentration (MIC), SH 105 [16] | minimal inhibitory concentration (MIC), SA S13E [17] | minimal inhibitory concentration (MIC), SA 489 [19] | further results |
| --- | --- | --- | --- | --- | --- | --- | --- | --- | --- | --- | --- | --- | --- | --- | --- | --- | --- | --- | --- | --- | --- |
| CC(C)CC(NC(=O)OC(C)(C)C)C(=O)NC1C(=O)NC(CC(N)=O)C(=O)NC2C(=O)NC3C(=O)NC(C(=O)NC(C(=O)O)c4cc(O)cc(O)c4-c4cc3ccc4O)C(OC3CC(C)(N)C(O)C(C)O3)c3ccc(c(Cl)c3)Oc3cc2cc(c3OC2OC(CO)C(O)C(O)C2O)Oc2ccc(cc2Cl)C1O [Example 36, N^1-(N-BOC-D-leucine) derivative of desepivancosaminyl desleucylA82846B] | >64 | 2 | 4 | 16 | 16 | 4 | 16 | 4 | 8 | 4 | >128 | 8 | 4 | 16 | >64 | 4 | >64 | 2 | 4 | 4 | minimal inhibitory concentration (MIC), HFRD [18]: >64 |
| CC1OC(OC2c3ccc(c(Cl)c3)Oc3cc4cc(c3OC3OC(CO)C(O)C(O)C3OC3CC(C)(NCc5ccc(-c6ccccc6)cc5)C(O)C(C)O3)Oc3ccc(cc3Cl)C(O)C(NC(=O)C(N)CCCCN)C(=O)NC(CC(N)=O)C(=O)NC4C(=O)NC3C(=O)NC2C(=O)NC(C(=O)O)c2cc(O)cc(O)c2-c2cc3ccc2O)CC(C)(N)C1O [Example 31, N^1-L-lysine derivative of N^DISACC-(p-phenylbenzyl)desleucylA82846B] | >64 | 0.5 | 0.5 | 0.33 | 0.5 | 2 | 2 | 0.25 | 0.5 | 0.25 | 5.6 | 1 | 0.5 | 0.5 | 1 | 2 | 2 | 0.5 | 1 | 2 | minimal inhibitory concentration (MIC), HFRD [18]: >64 |
| CC(C)C(C(=O)NC1C(=O)NC(CC(N)=O)C(=O)NC2C(=O)NC3C(=O)NC(C(=O)NC(C(=O)O)c4cc(O)cc(O)c4-c4cc3ccc4O)C(OC3CC(C)(N)C(O)C(C)O3)c3ccc(c(Cl)c3)Oc3cc2cc(c3OC2OC(CO)C(O)C(O)C2OC2CC(C)(N)C(O)C(C)O2)Oc2ccc(cc2Cl)C1O)N(C)C(=O)OC(C)(C)C [Example 41, N^1-(N-BOC-N-methyl-D-valine) derivative of desleucylA82846B] | >64 | 4 | 16 | 84 | 8 | 8 | 32 | 8 | 32 | 4 | >128 | 8 | 8 | >64 | >64 | 16 | 64 | 16 | 16 | 16 | minimal inhibitory concentration (MIC), HFRD [18]: no |
| CC(C)CC(NCc1ccc(-c2ccccc2)cc1)C(=O)NC1C(=O)NC(CC(N)=O)C(=O)NC2C(=O)NC3C(=O)NC(C(=O)NC(C(=O)O)c4cc(O)cc(O)c4-c4cc3ccc4O)C(OC3CC(C)(N)C(O)C(C)O3)c3ccc(c(Cl)c3)Oc3cc2cc(c3OC2OC(CO)C(O)C(O)C2OC2CC(C)(N)C(O)C(C)O2)Oc2ccc(cc2Cl)C1O [Example 34, N^1-[N-(p-phenylbenzyl)-D-leucine] derivative of desleucylA82846B] | >64 | ≦.06 | 0.125 | 0.44 | 0.25 | ≦.06 | 0.125 | ≦.06 | 0.125 | ≦.06 | 38 | 0.25 | ≦.06 | ≦.06 | 2 | ≦.06 | 4 | ≦.06 | ≦.06 | ≦.06 | minimal inhibitory concentration (MIC), HFRD [18]: 64 |
| CC1OC(OC2C(Oc3c4cc5cc3Oc3ccc(cc3Cl)[C@@H](O)[C@@H](NC(=O)[C@@H](CCCCNC(=O)OC(C)(C)C)NC(=O)OC(C)(C)C)C(=O)N[C@@H](CC(N)=O)C(=O)N[C@H]5C(=O)N[C@H]3C(=O)NC(C(=O)N[C@H](C(=O)O)c5cc(O)cc(O)c5-c5cc3ccc5O)[C@H](OC3CC(C)(N)C(O)C(C)O3)c3ccc(c(Cl)c3)O4)OC(CO)C(O)C2O)CC(C)(N)C1O (stereo partly drawn) [Example 16, N^1-(N,N′-DIBOC-D-lysine) derivative of desleucylA82846B] | – | – | – | 7 | – | – | – | – | – | – | >128 | – | – | – | – | – | – | – | – | – | – |
| CC1OC(OC2c3ccc(c(Cl)c3)Oc3cc4cc(c3OC3OC(CO)C(O)C(O)C3OC3CC(C)(NCc5ccc(-c6ccc(Cl)cc6)cc5)C(O)C(C)O3)Oc3ccc(cc3Cl)C(O)C(NC(=O)CCCCCCN)C(=O)NC(CC(N)=O)C(=O)NC4C(=O)NC3C(=O)NC2C(=O)NC(C(=O)O)c2cc(O)cc(O)c2-c2cc3ccc2O)CC(C)(N)C1O (centres unmarked) [Example 10, N^1-(7-amino-n-heptanoyl)-N^DISACC-[p-(p-chlorophenyl)benzyl]desleucylA82846B] | – | – | – | 0.57 | – | – | – | – | – | – | 5.7 | – | – | – | – | – | – | – | – | – | – |
| CNC(C(=O)NC1C(=O)NC(CC(N)=O)C(=O)NC2C(=O)NC3C(=O)NC(C(=O)NC(C(=O)O)c4cc(O)cc(O)c4-c4cc3ccc4O)C(OC3CC(C)(N)C(O)C(C)O3)c3ccc(c(Cl)c3)Oc3cc2cc(c3OC2OC(CO)C(O)C(O)C2OC2CC(C)(N)C(O)C(C)O2)Oc2ccc(cc2Cl)C1O)C(C)C [Example 42, N^1-(N-methyl-D-valine) derivative of desleucylA82846B] | >64 | 1 | – | 0.66 | 1 | – | 0.5 | – | 0.5 | – | 128 | – | 2 | – | 64 | 0.5 | 1 | 0.5 | 1 | 0.5 | – |
| CC(C)C[C@@H](NC(=O)OC(C)(C)C)C(=O)N[C@H]1C(=O)N[C@@H](CC(N)=O)C(=O)N[C@H]2C(=O)N[C@H]3C(=O)NC(C(=O)N[C@H](C(=O)O)c4cc(O)cc(O)c4-c4cc3ccc4O)[C@H](OC3CC(C)(N)C(O)C(C)O3)c3ccc(c(Cl)c3)Oc3cc2cc(c3OC2OC(CO)C(O)C(O)C2OC2CC(C)(N)C(O)C(C)O2)Oc2ccc(cc2Cl)[C@H]1O (stereo partly drawn) [Example 14, N^1-(N-BOC-D-leucine) derivative of desleucylA82846B] | – | – | – | 6.1 | – | – | – | – | – | – | >128 | – | – | – | – | – | – | – | – | – | – |

Source: patent US6670446B1, “N1 modified glycopeptides” (Eli Lilly and Company, priority 1998, dated 2003)
